Measurements: ChEMBL document CHEMBL4422669, “Bisorbicillinol inhibits Lyn tyrosine kinase for allergic response on RBL-2H3 cells” (Bioorg Med Chem Lett, 2019)
Active and inactive are the calls of the source. No cut-off for these calls is given here.

What was measured:
RBL-2H3 [1] = assay: Anti-allergic activity in rat RBL2H3 cells assessed as reduction in calcium ionophore-induced TNF-alpha level preincubated for 15 mins followed by calcium ionophore stimulation and measured after 3 hrs by ELISA; format: functional, cell-based
RBL-2H3 [2] = assay: (§1) Anti-allergic activity in rat RBL2H3 cells assessed as reduction in calcium ionophore-induced beta-hexosaminidase release preincubated for 15 mins followed by calcium ionophore-stimulation and measured after 3 hrs by p-nitrophenyl-2-acetamide-2-deoxy-beta-glucopyranoside dye-based colorimetric analysis; format: functional, cell-based
RBL-2H3 [3] = assay: Anti-allergic activity in rat RBL2H3 cells assessed as reduction in calcium ionophore-induced IL-4 level preincubated for 15 mins followed by calcium ionophore stimulation and measured after 3 hrs by ELISA; format: functional, cell-based
RBL-2H3 [4] = assay: Anti-allergic activity in rat RBL2H3 cells assessed as reduction in mouse anti-DNP IgE-induced TNF-alpha level preincubated for 15 mins followed by mouse anti-DNP IgE-stimulation and measured after 3 hrs by ELISA; format: functional, cell-based
RBL-2H3 [5] = assay: as §1, with “mouse anti-DNP IgE-induced” for “calcium ionophore-induced”, “mouse anti-DNP IgE-stimulation” for “calcium ionophore-stimulation”; format: functional, cell-based
RBL-2H3 [6] = assay: Anti-allergic activity in rat RBL2H3 cells assessed as reduction in mouse anti-DNP IgE-induced IL-4 level preincubated for 15 mins followed by mouse anti-DNP IgE-stimulation and measured after 3 hrs by ELISA; format: functional, cell-based
RBL-2H3 [7] = assay: Cytotoxicity in rat RBL2H3 cells assessed as LDH release; format: cell-based; design: concentration or dose not given beside the values
[8] = biological target: Tyrosine-protein kinase Lyn (Homo sapiens) (UniProt P07948); assay: Competitive inhibition of human LYN expressed in baculovirus infected Sf9 insect cells using […] at 10 uM after 10 mins by Lineweaver-Burk plot analysis
Chain of Tyrosine-protein kinase Lyn (Homo sapiens) (P07948 2-512 limits assumed): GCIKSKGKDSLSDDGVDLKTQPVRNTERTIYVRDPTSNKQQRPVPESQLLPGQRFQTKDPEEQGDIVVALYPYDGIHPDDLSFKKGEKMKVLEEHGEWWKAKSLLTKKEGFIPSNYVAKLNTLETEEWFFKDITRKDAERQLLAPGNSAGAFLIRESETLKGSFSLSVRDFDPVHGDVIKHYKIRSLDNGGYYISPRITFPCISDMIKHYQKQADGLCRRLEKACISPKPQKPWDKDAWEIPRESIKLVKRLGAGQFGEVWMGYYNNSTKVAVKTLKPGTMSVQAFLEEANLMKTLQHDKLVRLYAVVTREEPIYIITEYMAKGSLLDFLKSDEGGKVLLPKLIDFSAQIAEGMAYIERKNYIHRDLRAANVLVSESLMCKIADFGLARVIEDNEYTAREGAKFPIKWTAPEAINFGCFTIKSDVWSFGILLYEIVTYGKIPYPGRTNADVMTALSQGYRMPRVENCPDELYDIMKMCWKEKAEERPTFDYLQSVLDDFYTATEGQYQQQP

[9] = biological target: Tyrosine-protein kinase Lyn (Rattus norvegicus) (UniProt Q07014); assay: Inhibition of Lyn in rat RBL2H3 cells assessed as reduction in mouse anti-DNP IgE-induced PLCgamma1-phosphorylation level at 10 uM preincubated for 15 mins followed by mouse anti-DNP IgE stimulation and measured after 3 hrs by Western blot analysis; format: cell-based
Chain of Tyrosine-protein kinase Lyn (Rattus norvegicus) (Q07014 whole entry): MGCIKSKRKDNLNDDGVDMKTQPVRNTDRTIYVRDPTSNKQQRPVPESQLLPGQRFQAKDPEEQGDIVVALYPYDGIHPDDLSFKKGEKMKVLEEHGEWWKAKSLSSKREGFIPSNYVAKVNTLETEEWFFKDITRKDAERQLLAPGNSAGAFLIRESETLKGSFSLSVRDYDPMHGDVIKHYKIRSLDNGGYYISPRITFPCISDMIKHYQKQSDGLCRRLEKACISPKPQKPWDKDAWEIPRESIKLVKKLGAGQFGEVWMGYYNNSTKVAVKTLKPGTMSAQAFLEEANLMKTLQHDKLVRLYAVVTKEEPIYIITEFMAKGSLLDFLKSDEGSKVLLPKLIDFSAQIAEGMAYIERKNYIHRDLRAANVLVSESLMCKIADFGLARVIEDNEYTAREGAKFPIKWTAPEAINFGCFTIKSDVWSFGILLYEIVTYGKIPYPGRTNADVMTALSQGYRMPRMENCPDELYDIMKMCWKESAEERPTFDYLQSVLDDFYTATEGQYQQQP

[10] = biological target: Tyrosine-protein kinase Lyn (Rattus norvegicus) (UniProt Q07014); assay: Inhibition of mouse anti-DNP IgE-induced Lyn phosphorylation in rat RBL2H3 cells at 10 uM preincubated for 15 mins followed by mouse anti-DNP IgE stimulation and measured after 3 hrs by Western blot analysis; format: cell-based
[11] = biological target: Tyrosine-protein kinase Lyn (Rattus norvegicus) (UniProt Q07014); assay: Inhibition of Lyn in rat RBL2H3 cells assessed as reduction in mouse anti-DNP IgE-induced Syk phosphorylation level at 10 uM preincubated for 15 mins followed by mouse anti-DNP IgE stimulation and measured after 3 hrs by Western blot analysis; format: cell-based
RBL-2H3 [12] = assay: Effect on mouse anti-DNP IgE-induced Syk protein expression in rat RBL2H3 cells at 10 uM preincubated for 15 mins followed by mouse anti-DNP IgE stimulation and measured after 3 hrs by Western blot analysis; format: functional, cell-based
RBL-2H3 [13] = assay: Effect on mouse anti-DNP IgE-induced Lyn protein expression in rat RBL2H3 cells at 10 uM preincubated for 15 mins followed by mouse anti-DNP IgE stimulation and measured after 3 hrs by Western blot analysis; format: functional, cell-based
[14] = biological target: Tyrosine-protein kinase Lyn (Homo sapiens) (UniProt P07948); details: Sf9, 10 uM
Description: Inhibition of human LYN expressed in baculovirus infected Sf9 insect cells using p-nitrophenol at 10 uM after 10 mins by Lineweaver-Burk plot analysis

Structure (SMILES) | IC50 (RBL-2H3 [1]) | IC50 (RBL-2H3 [2]) | IC50 (RBL-2H3 [3]) | IC50 (RBL-2H3 [4]) | IC50 (RBL-2H3 [5]) | IC50 (RBL-2H3 [6]) | inhibition [9] | inhibition [10] | inhibition [11] | Activity (RBL-2H3 [7]) | inhibition [8] | Activity (RBL-2H3 [12]) | Activity (RBL-2H3 [13]) | inhibition [14]
C/C=C/C=C/C(=O)C1=C[C@](C)(OC(C)=O)C(=O)C(C)=C1O | < 100 µM | < 100 µM | 27.1 µM | 35.6 µM | 4.8 µM | 8.5 µM | – | – | – | < 5% | – | – | – | –
C/C=C/C=C/C(=O)C1=C[C@@]2(C)[C@H]3C(C(=O)/C=C/C=C/C)=C(O)C(C)=C(O)[C@@]3(C)O[C@@]2(O)[C@@](C)(O)C1=O [BISVERTINOLONE] | < 100 µM | < 100 µM | 7.3 µM | 40.8 µM | 9.1 µM | 7.7 µM | – | – | – | < 5% | – | – | – | –
C/C=C/C=C/C(=O)c1cc(C)c(O)c(C)c1O | < 100 µM | < 100 µM | – | – | 26.5 µM | – | – | – | – | < 5% | – | – | – | –
CN[C@@H]1C[C@H]2O[C@@](C)([C@@H]1OC)n1c3ccccc3c3c4c(c5c6ccccc6n2c5c31)C(=O)NC4 | – | – | – | – | – | – | – | – | – | – | inactive | – | – | Active

The next lines start with results.

IC50 (RBL-2H3 [1]) | IC50 (RBL-2H3 [2]) | IC50 (RBL-2H3 [3]) | IC50 (RBL-2H3 [4]) | IC50 (RBL-2H3 [5]) | IC50 (RBL-2H3 [6]) | inhibition [9] | inhibition [10] | inhibition [11] | Structure (SMILES) | Activity (RBL-2H3 [7]) | inhibition [8] | Activity (RBL-2H3 [12]) | Activity (RBL-2H3 [13]) | inhibition [14]
23.2 µM | < 100 µM | 9.1 µM | 29.6 µM | 18.3 µM | 6.9 µM | – | – | – | C/C=C/C=C/C(O)=C1/C(=O)[C@@]2(C)[C@H]3\C(=C(O)/C=C/C=C/C)C(=O)[C@@]4(C)[C@@H]1[C@]1(C)O[C@@]4(O)[C@@]3(C)O[C@@]12O | < 5% | – | – | – | –
63.8 µM | 53.6 µM | 4.9 µM | 2.9 µM | 2.8 µM | 2.8 µM | Active | inactive | Active | C/C=C/C=C/C(=O)[C@]12C(=O)C(C)=C(O)[C@@](C)(O)[C@H]1[C@H]1\C(=C(O)/C=C/C=C/C)C(=O)[C@]2(C)C(=O)[C@@]1(C)O [BISORBICILLINOL] | < 5% | Active | inactive | inactive | –
< 100 µM | < 100 µM | 17.9 µM | 17.3 µM | 4.5 µM | 59.4 µM | – | – | – | C/C=C/C=C/C(O)=C1/C(=O)[C@@]2(C)[C@H]3\C(=C(O)/C=C/C=C/C)C(=O)[C@H]4[C@@H]1[C@]1(C)O[C@@]4(O)[C@@]3(C)O[C@@]12O | < 5% | – | – | – | –
